In brackets after ≈: the same amount, converted by molar mass.
Columns and labels:
AAC(6′)-Ii = AAC(6′)-Ii (Enterococcus faecium, UniProt Q47764); assay: Aminoglycoside-modifying enzyme kinetics, AAC(6′)-Ii; format: biochemical; details: in words
Description: (§1) They were in fact potent competitive inhibitors of the APH(2″) activity, Kis=0.8 μM for dimer 4, 0.1 μM for 6 and 0.7 μM for 27.
(§2) BF refers to the bifunctional enzyme AAC(6′)-APH(2″), where the particular activity is indicated. The neamine data were obtained from Daigle, D. M.; et al. Chem. Biol. 1999, 6, 99.

[1] = target: APH(2″) activity of AAC(6′)-APH(2″) (Staphylococcus aureus, UniProt P0A0C1); assay: Aminoglycoside-modifying enzyme kinetics, APH(2″) activity of the bifunctional enzyme; format: biochemical; details: for substrate for APH(2″) activity: in words
Chain of APH(2″) activity of AAC(6′)-APH(2″) (P0A0C1 whole entry): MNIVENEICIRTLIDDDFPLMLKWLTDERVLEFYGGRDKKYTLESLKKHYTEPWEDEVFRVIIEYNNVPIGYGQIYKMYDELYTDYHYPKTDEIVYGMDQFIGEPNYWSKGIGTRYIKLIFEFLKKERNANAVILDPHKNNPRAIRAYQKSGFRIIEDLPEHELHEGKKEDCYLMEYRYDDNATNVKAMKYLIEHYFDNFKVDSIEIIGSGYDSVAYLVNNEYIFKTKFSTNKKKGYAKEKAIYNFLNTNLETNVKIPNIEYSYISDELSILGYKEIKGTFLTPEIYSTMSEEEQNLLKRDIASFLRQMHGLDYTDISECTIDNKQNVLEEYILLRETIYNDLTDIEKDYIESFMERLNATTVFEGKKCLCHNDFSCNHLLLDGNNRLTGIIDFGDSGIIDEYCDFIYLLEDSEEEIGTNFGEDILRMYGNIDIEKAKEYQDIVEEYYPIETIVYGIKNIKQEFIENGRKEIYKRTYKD
Description: as §1, §2

E. coli ATCC 25922 = assay: Antimicrobial testing (MIC, NCCLS M7-A4); format: cell-based; details: Escherichia coli, ATCC25922; E. coli reference strain
Description: (§3) Antimicrobial Testing: The Kirby-Bauer Disk assay was performed as previously described (Hendrix, M.; et al. J. Am. Chem. Soc. 1997, 119, 3641; Phillips, I.; Williams, D. In Laboratory Methods in Antimicrobial Chemotherapy; Gerrod, L., Ed.; Churchill Livingstone Press: Edinburg, 1978; pp 3-30). Reference strains E. coli ATCC 25922 and S. aureus ATCC 25923 were obtained as lyophilized pellets (Difco). MIC testing was performed as recommended in the NCCLS Publication M7-A4.

APH(3′)-IIIa = APH(3′)-IIIa (Enterococcus faecalis, UniProt P0A3Y5); assay: Aminoglycoside-modifying enzyme kinetics, APH(3′)-IIIa; format: biochemical; details: in words
Chain of APH(3′)-IIIa (P0A3Y5 whole entry): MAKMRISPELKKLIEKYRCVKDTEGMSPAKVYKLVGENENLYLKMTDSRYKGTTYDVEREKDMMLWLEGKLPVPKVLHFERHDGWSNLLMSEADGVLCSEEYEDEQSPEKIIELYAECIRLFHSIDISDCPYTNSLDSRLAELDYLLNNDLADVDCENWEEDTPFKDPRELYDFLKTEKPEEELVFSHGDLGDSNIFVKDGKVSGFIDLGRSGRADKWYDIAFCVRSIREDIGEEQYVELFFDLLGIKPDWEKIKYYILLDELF
Description: as §1, §2

[2] = test system: E. coli 16S rRNA A-site (AS-wt); assay: Surface plasmon resonance binding to immobilized biotinylated A-site rRNA; details: SPR; for Kd: AS-wt; for affinity for AS-wt relative to neamine: compared with neamine
Description: The dissociation constant (Kd) and binding stoichiometry were determined using surface plasmon resonance (SPR) against an immobilized rRNA sequence modeling the A-site of prokaryotic rRNA (FIGS. 1-4) (Hendrix, M.; et al. J. Am. Chem. Soc. 1997, 119, 3641; Wong, C.-H.; et al. Chem. Biol. 1998, 5, 397). […] We focused on neamine as it represents the simplest effective aminoglycoside antibiotic and contains the key β-hydroxyamine motif for interaction with the phosphodiester group and the Hoogsteen face of guanine residues in RNA (FIG. 2) (Hendrix, M.; et al. Angew. Chem., Int. Ed. Engl. 1997, 36, 95). […] Various dimers of neamine were therefore constructed in order to identify a bivalent aminoglycoside that would bind AS-wt with high affinity (FIG. 4), and at the same time resist and/or inhibit the modifying enzymes due to its unnatural structure (Some aminoglycoside dimers were prepared previously; however, the monomers bind the A-site stoichiometrically: see Michael; K.; et al. Bioorg. Med. Chem. 1999, 7, 1361; for vancomycin dimers, see Rao, J.; Whitesides, G. H. J. Am. Chem. Soc. 1997, 119, 10286; Sundram, U. N.; et al. J. Am. Chem. Soc. 1996, 118, 13107).
Reactions were performed under inert atmosphere unless otherwise stated. THF and CH2Cl2 were distilled under Ar with benzophenone ketyl and CaH2, respectively. NMR spectra were obtained on a Bruker AMX-400. The sites of enzymatic modification of neomycin and gentamicin that cause drug resistance are shown in FIG. 1 (Daigle, D. M.; et al. Chem. Biol. 1999, 6, 99). Synthesis of biotinylated RNAs and surface plasmon resonance experiments were performed as previously described and Kd values were also calculated as previously described (FIG. 2) (Hendrix, M.; et al. J. Am. Chem. Soc. 1997, 119, 3641).

[3] = target: AAC(6′) activity of AAC(6′)-APH(2″) (Staphylococcus aureus, UniProt P0A0C1); assay: Aminoglycoside-modifying enzyme kinetics, AAC(6′) activity of the bifunctional enzyme; format: biochemical; details: in words
Chain of AAC(6′) activity of AAC(6′)-APH(2″) (P0A0C1 whole entry): as the sequence (P0A0C1 whole entry) above
Description: as §1, §2

[4] = test system: tobramycin-resistant strain of P. aeruginosa from cystic fibrosis patients; assay: Antibiotic activity against a tobramycin-resistant strain; format: cell-based; details: compared with tobramycin
P. aeruginosa, PAO-1 = assay: Antibiotic activity against other strains; format: cell-based; details: in words
Description: as §3

[5] = test system: S. aureus ATCC 33591-MRSA; assay: Antibiotic activity against other strains; format: cell-based; details: in words
Description: as §3

P. aeruginosa ATCC 27853 = assay: Antibiotic activity against other strains; format: cell-based; details: in words
Description: as §3

S. aureus ATCC 29213 = assay: Antibiotic activity against other strains; format: cell-based; details: in words
Description: as §3

E. faecalis ATCC 29212 = assay: Antibiotic activity against other strains; format: cell-based; details: in words
Description: as §3

[6] = test system: CN(CCCCN(C)CC(O)COC1C(O)C(N)CC(N)C1OC1OC(CN)C(O)C(O)C1N)CC(O)COC1C(O)C(N)CC(N)C1OC1OC(CN)C(O)C(O)C1N; assay: Km as substrate for the AAC(6′) acetyltransferase activity of the bifunctional enzyme AAC(6′)-APH(2″) (BF); format: biochemical; details: other: acetyltransferase activity of the bifunctional enzyme (BF)
Description: as §1, §2

[7] = test system: NCC1OC(OC2C(N)CC(N)C(O)C2OCC(=O)NCCCNC(=O)COC2C(O)C(N)CC(N)C2OC2OC(CN)C(O)C(O)C2N)C(N)C(O)C1O; assay: as above; format: biochemical; details: other: acetyltransferase activity of the bifunctional enzyme (BF)
Description: as §1, §2

[8] = test system: NCC1OC(OC2C(N)CC(N)C(O)C2OCC(=O)NCCCCCNC(=O)COC2C(O)C(N)CC(N)C2OC2OC(CN)C(O)C(O)C2N)C(N)C(O)C1O; assay: as above; format: biochemical; details: other: acetyltransferase activity of the bifunctional enzyme (BF)
Description: as §1, §2

[9] = test system: CN(CCCCN(C)CC(O)COC1C(O)C(N)CC(N)C1OC1OC(CN)C(O)C(O)C1N)CC(O)COC1C(O)C(N)CC(N)C1OC1OC(CN)C(O)C(O)C1N; assay: Km as substrate for AAC(6′)-Ii (6′-N-acetylation); format: biochemical; details: other: 6′-N-acetylation
Description: as §1, §2

[10] = test system: NCC1OC(OC2C(N)CC(N)C(O)C2OCC(=O)NCCCNC(=O)COC2C(O)C(N)CC(N)C2OC2OC(CN)C(O)C(O)C2N)C(N)C(O)C1O; assay: Km as substrate for AAC(6′)-Ii (6′-N-acetylation); format: biochemical; details: other: 6′-N-acetylation
Description: as §1, §2

[11] = test system: NCC1OC(OC2C(N)CC(N)C(O)C2OCC(=O)NCCCCCNC(=O)COC2C(O)C(N)CC(N)C2OC2OC(CN)C(O)C(O)C2N)C(N)C(O)C1O; assay: Km as substrate for AAC(6′)-Ii (6′-N-acetylation); format: biochemical; details: other: 6′-N-acetylation
Description: as §1, §2

[12] = test system: CN(CCCCN(C)CC(O)COC1C(O)C(N)CC(N)C1OC1OC(CN)C(O)C(O)C1N)CC(O)COC1C(O)C(N)CC(N)C1OC1OC(CN)C(O)C(O)C1N; assay: Km as substrate for APH(3′)-IIIa (3′-O-phosphorylation); format: biochemical; details: other: 3′-O-phosphorylation
Description: as §1, §2

[13] = test system: NCC1OC(OC2C(N)CC(N)C(O)C2OCC(=O)NCCCNC(=O)COC2C(O)C(N)CC(N)C2OC2OC(CN)C(O)C(O)C2N)C(N)C(O)C1O; assay: as above; format: biochemical; details: other: 3′-O-phosphorylation
Description: as §1, §2

[14] = test system: NCC1OC(OC2C(N)CC(N)C(O)C2OCC(=O)NCCCCCNC(=O)COC2C(O)C(N)CC(N)C2OC2OC(CN)C(O)C(O)C2N)C(N)C(O)C1O; assay: as above; format: biochemical; details: other: 3′-O-phosphorylation
Description: as §1, §2

Chain of AAC(6′)-Ii (Q47764 entry or part of it): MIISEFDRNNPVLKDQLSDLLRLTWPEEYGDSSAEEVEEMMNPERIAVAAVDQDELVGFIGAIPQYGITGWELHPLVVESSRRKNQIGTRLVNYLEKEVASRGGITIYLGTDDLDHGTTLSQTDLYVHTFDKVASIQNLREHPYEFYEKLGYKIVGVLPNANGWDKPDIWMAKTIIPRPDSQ

For `NCC1OC(OC2C(N)CC(N)C(O)C2OCC(=O)NCCCNC(=O)COC2C(O)C(N)CC(N)C2OC2OC(CN)C(O)C(O)C2N)C(N)C(O)C1O` (stereo not drawn) [Dimer 4, N,N′-1,3-bis(5-Ethylcarboxyl-neamine)propylamide], the “substrate for AAC(6′)-Ii” value (AAC(6′)-Ii) was “poor substrates”, the Ki [1] was 800 nM and the “substrate for APH(2″) activity” value [1] was “not substrates”. For the same molecule, the MIC (E. coli ATCC 25922) was 31 µM (≈ 24.8 µg/mL), the “substrate for APH(3′)-IIIa” value (APH(3′)-IIIa) was “poor substrates” and the Kd ([2]; for neamine per binding site) was 1100 nM. The “affinity for AS-wt relative to neamine” value [2] was “ten-fold greater than neamine” and the “substrate for AAC(6′) activity of bifunctional enzyme” value (shortened to “substrate for AAC(6′) activity”) [3] was “poor substrates”.
`NCC1OC(OC2C(N)CC(N)C(O)C2OCC(=O)NCCCCCNC(=O)COC2C(O)C(N)CC(N)C2OC2OC(CN)C(O)C(O)C2N)C(N)C(O)C1O` (stereo not drawn) [Dimer 6, N,N′-1,3-bis(5-Ethylcarboxyl-neamine)pentylamide] was tested, and the “substrate for AAC(6′)-Ii” value (AAC(6′)-Ii) was “poor substrates”, the Ki [1] was 100 nM and the “substrate for APH(2″) activity” value [1] was “not substrates”. For the same molecule, the MIC (E. coli ATCC 25922) was 125 µM (≈ 103 µg/mL), the “substrate for APH(3′)-IIIa” value (APH(3′)-IIIa) was “poor substrates” and the Kd ([2]; for neamine per binding site) was 800 nM. The “affinity for AS-wt relative to neamine” value [2] was “ten-fold greater than neamine” and the “substrate for AAC(6′) activity” value [3] was “poor substrates”.
`CN(CCCCN(C)CC(O)COC1C(O)C(N)CC(N)C1OC1OC(CN)C(O)C(O)C1N)CC(O)COC1C(O)C(N)CC(N)C1OC1OC(CN)C(O)C(O)C1N` (stereo not drawn) [Dimer 27] was tested, and the “substrate for AAC(6′)-Ii” value (AAC(6′)-Ii) was “poor substrates”, the Ki [1] was 700 nM and the “substrate for APH(2″) activity” value [1] was “not substrates”. The MIC (E. coli ATCC 25922) was 6.25 µM (≈ 5.46 µg/mL), the “substrate for APH(3′)-IIIa” value (APH(3′)-IIIa) was “poor substrates” and the “effectiveness relative to tobramycin” value [4] was 3 times. The antibiotic activity (P. aeruginosa, PAO-1) was “effective”, the antibiotic activity [5] was “effective” and the antibiotic activity (P. aeruginosa ATCC 27853) was “effective”. The antibiotic activity (S. aureus ATCC 29213) was “effective”, the antibiotic activity (E. faecalis ATCC 29212) was “effective” and the Kd [2] was 40 nM. For the same molecule, the “substrate for AAC(6′) activity” value [3] was “poor substrates”.
For `NC[C@H]1O[C@H](O[C@H]2[C@H](O)[C@@H](O)[C@H](N)C[C@@H]2N)[C@H](N)[C@@H](O)[C@@H]1O` [neamine, reference compound], the Kd ([2]; for neamine per binding site) was 10000 nM.
Work on “AAC(6′) activity of the bifunctional aminoglycoside modifying-enzyme AAC(6′)-APH(2″) (Staphylococcus aureus)” yielded a Km [6] of 0.53 µM, a Km [7] of 0.84 µM and a Km [8] of 4.22 µM.
For AAC(6′)-Ii (Enterococcus faecium), the Km [9] was 28.7 µM, the Km [10] was 53.4 µM and the Km [11] was 83.6 µM.
APH(3′)-IIIa (Enterococcus faecalis) was tested, and the Km [12] was 1.1 µM, the Km [13] was 0.82 µM and the Km [14] was 2.66 µM.

From patent publication US6921810B2, “Bifunctional antibiotics” (The Scripps Research Institute, priority 2000, dated 2005)
